Experimental data: the NIST ThermoML archive (doi:10.1016/j.jct.2014.10.008)

Assay: osmotic coefficient (dimensionless); mn = molality of the nth substance listed, in mol/kg
Details: 101 kPa, Liquid, Vapor pressure osmometer - Knauer K-7000

CCCC[N+]1(C)CCCC1.N#CN=C=[N-] [1-butyl-1-methylpyrrolidinium dicyanamide] + O
Details | osmotic coefficient
313.15 K, m1 = 0.0272 | 0.915
313.15 K, m1 = 0.0491 | 0.849
313.15 K, m1 = 0.0864 | 0.734
313.15 K, m1 = 0.1088 | 0.697
313.15 K, m1 = 0.1499 | 0.68
313.15 K, m1 = 0.1968 | 0.627
313.15 K, m1 = 0.3968 | 0.503
313.15 K, m1 = 0.5057 | 0.471
313.15 K, m1 = 0.7825 | 0.433
313.15 K, m1 = 0.9665 | 0.416
313.15 K, m1 = 1.474 | 0.373
323.15 K, m1 = 0.0272 | 0.982
323.15 K, m1 = 0.0512 | 0.879
323.15 K, m1 = 0.0928 | 0.855
323.15 K, m1 = 0.112 | 0.846
323.15 K, m1 = 0.1499 | 0.81
323.15 K, m1 = 0.1968 | 0.747
323.15 K, m1 = 0.2912 | 0.673
323.15 K, m1 = 0.3968 | 0.656
323.15 K, m1 = 0.5057 | 0.608
323.15 K, m1 = 0.7825 | 0.538
323.15 K, m1 = 0.9665 | 0.48
323.15 K, m1 = 1.488 | 0.405
328.15 K, m1 = 0.024 | 1.05
328.15 K, m1 = 0.0896 | 0.859
328.15 K, m1 = 0.1248 | 0.815
328.15 K, m1 = 0.2032 | 0.747
328.15 K, m1 = 0.2913 | 0.682
328.15 K, m1 = 0.4017 | 0.642
328.15 K, m1 = 0.5041 | 0.585
328.15 K, m1 = 0.7825 | 0.559
328.15 K, m1 = 0.973 | 0.498
328.15 K, m1 = 1.496 | 0.424

CCCCCCCC[n+]1ccn(C)c1.[Cl-] [1-methyl-3-octylimidazolium chloride] + O
Details | osmotic coefficient
313.15 K, m1 = 0.0346 | 1.05
313.15 K, m1 = 0.0491 | 1
313.15 K, m1 = 0.0809 | 0.816
313.15 K, m1 = 0.1329 | 0.727
313.15 K, m1 = 0.182 | 0.681
313.15 K, m1 = 0.2455 | 0.617
313.15 K, m1 = 0.2917 | 0.555
313.15 K, m1 = 0.3582 | 0.531
313.15 K, m1 = 0.4679 | 0.48
313.15 K, m1 = 0.5228 | 0.45
313.15 K, m1 = 0.6037 | 0.424
313.15 K, m1 = 0.7323 | 0.383
313.15 K, m1 = 0.8825 | 0.343
313.15 K, m1 = 1.072 | 0.317
313.15 K, m1 = 1.356 | 0.289
313.15 K, m1 = 1.771 | 0.266
323.15 K, m1 = 0.0419 | 1.1
323.15 K, m1 = 0.052 | 1.06
323.15 K, m1 = 0.0858 | 0.946
323.15 K, m1 = 0.1118 | 0.918
323.15 K, m1 = 0.182 | 0.726
323.15 K, m1 = 0.2455 | 0.675
323.15 K, m1 = 0.2917 | 0.633
323.15 K, m1 = 0.3582 | 0.587
323.15 K, m1 = 0.4679 | 0.54
323.15 K, m1 = 0.5228 | 0.498
323.15 K, m1 = 0.6037 | 0.464
323.15 K, m1 = 0.7323 | 0.424
323.15 K, m1 = 0.8825 | 0.384
323.15 K, m1 = 1.072 | 0.345
323.15 K, m1 = 1.356 | 0.31
323.15 K, m1 = 1.771 | 0.3
328.15 K, m1 = 0.0361 | 1.14
328.15 K, m1 = 0.0506 | 1.12
328.15 K, m1 = 0.0852 | 1.08
328.15 K, m1 = 0.1329 | 1.07
328.15 K, m1 = 0.1791 | 1.02
328.15 K, m1 = 0.2484 | 0.962
328.15 K, m1 = 0.2947 | 0.957
328.15 K, m1 = 0.3568 | 0.929
328.15 K, m1 = 0.468 | 0.906
328.15 K, m1 = 0.5243 | 0.875
328.15 K, m1 = 0.6052 | 0.844
328.15 K, m1 = 0.7352 | 0.753
328.15 K, m1 = 0.8826 | 0.689
328.15 K, m1 = 1.072 | 0.624
328.15 K, m1 = 1.359 | 0.556
328.15 K, m1 = 1.774 | 0.479
